Assay results from publication PMC4168790 (ACS Chemical Biology, 2014).

Key:
PptT [1] = target: T1, PptT (Mycobacterium tuberculosis, UniProt O33336); format: biochemical, M. tuberculosis; details: MAS as target carrier protein (4 µM MAS, 2 µM rhodamine CoA), 250 nM PptT
T1 sequence (O33336 1-227): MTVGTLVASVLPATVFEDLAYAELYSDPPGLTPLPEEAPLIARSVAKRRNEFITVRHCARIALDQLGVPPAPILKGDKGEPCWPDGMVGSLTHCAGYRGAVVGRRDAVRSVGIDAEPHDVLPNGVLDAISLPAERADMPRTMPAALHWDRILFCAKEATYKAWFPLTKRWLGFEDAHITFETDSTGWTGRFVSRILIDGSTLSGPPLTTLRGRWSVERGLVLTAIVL

PptT [2] = target: T1, PptT; assay: biochemical; format: binding, M. tuberculosis
Sfp = target: T2, Sfp (Bacillus subtilis, UniProt P39135); assay: Isothermal titration calorimetry of CoA analogs binding to Sfp; design: species or system B. subtilis
T2 sequence (P39135 1-224): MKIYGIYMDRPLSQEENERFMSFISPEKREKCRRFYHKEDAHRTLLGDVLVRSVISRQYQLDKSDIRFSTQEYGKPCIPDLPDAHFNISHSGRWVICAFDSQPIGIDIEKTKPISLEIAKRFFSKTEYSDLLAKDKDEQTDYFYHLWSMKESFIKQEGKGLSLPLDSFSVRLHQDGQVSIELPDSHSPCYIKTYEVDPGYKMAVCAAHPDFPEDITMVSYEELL

HsPPT = details: cited from earlier work

CN[C@@H](C)[C@H](O)c1ccccc1 [(−)-ephedrine hemisulfate, (−)-ephedrine]
IC50, PptT, MAS (PptT [1]): inactive

CC(C)(COP(=O)(O)OP(=O)(O)OC[C@H]1O[C@@H](n2cnc3c(N)ncnc32)[C@H](O)[C@@H]1OP(=O)(O)O)[C@@H](O)C(=O)NCCC(=O)NCCS [CoA, coenzyme A]
Kd (PptT [2]): 0.036 ± 0.013 µM | enthalpy of binding (ΔH), PptT (PptT [2]; ITC, 16°C): −5.78 ± 0.08 kcal mol^–1 | entropy of binding (TΔS), PptT (PptT [2]; ITC, 16°C): 4.14 ± 0.16 kcal mol^–1 | Kd (Sfp): 3.4 ± 0.2 µM | enthalpy of binding (ΔH), Sfp (Sfp; ITC, 16°C): −12.5 ± 0.15 kcal mol^–1 | entropy of binding (TΔS), Sfp (Sfp; ITC, 16°C): −5.07 ± 0.38 kcal mol^–1

N=C1Sc2ccccc2C2=NCCCN12 [PD 404, 182]
inhibitory activity against HsPPT (HsPPT): no inhibitory activity

CN=c1nc(-c2ccccc2)n(-c2ccccc2)s1 [SCH-202676]
inhibitory activity against HsPPT (HsPPT): no inhibitory activity

Clc1ccc(C(c2ccc(Cl)cc2)n2cc[n+](CC(OCc3ccc(Cl)cc3Cl)c3ccc(Cl)cc3Cl)c2)cc1 (stereo not shown) [calmidazolium Cl, calmidazolium chloride]
inhibitory activity against HsPPT (HsPPT): no inhibitory activity

NC(N)=Nc1ccc2[nH]c3c(c2c1)C[C@@]1(O)[C@H]2Cc4ccc(O)c5c4[C@@]1(CCN2CC1CC1)[C@H]3O5.O=C(O)C(F)(F)F.O=C(O)C(F)(F)F [guanidinyl-naltrindole 2CF3COOH, guanidinyl-naltrindole]
inhibitory activity against HsPPT (HsPPT): no inhibitory activity

O=C1c2c(O)ccc(O)c2C(=O)c2c(NCCNCCO)ccc(NCCNCCO)c21 [mitoxantrone 2HCl, mitoxantrone]
IC50, PptT, MAS (PptT [1]): inactive

C[n+]1cc2c3c(ccc2c2ccc4cc5c(cc4c21)OCO5)OCO3 [sanguinarine Cl, sanguinarine chloride]
inhibitory activity against HsPPT (HsPPT): no inhibitory activity
